Experimental data from US12370182B2, “Bicyclic derivatives as GABAA A5 receptor modulators” (RICHTER GEDEON NYRT., priority 2018, dated 2025).
pKi: −log10 of the molar value.

molecular target: human recombinant GABAA α5β3γ2 receptor (Homo sapiens (Human), UniProt P18507+P31644); assay: Binding assay, [3H]Ro151788 displacement on membranes of HEK cells; conditions: 0.5 nM [3H]Ro151788, 60 minutes at 4° C., Cheng-Prusoff; read-out: hGABAA α5 Ki
Experimental: The GABAA α5β3γ2 protein used for the receptor binding assay was derived from membranes produced from HEK cells (Millipore CYL3073) expressing the human recombinant GABAA α5β3γ2 receptor. Cells were stored and cultured in-house according to the instructions provided by the vendor (Millipor). Cell pellet was homogenized in 10 times modified Krebs Henseleit buffer (membrane preparation buffer): 20 mM Tris, 120 mM NaCl, 100 mM KCl, 25 mM CaCl2) and 25 mM MgCl2 pH=7.4 at 4° C. using Ultra Turrax (Janke&Kunkel) maximal speed for 15 seconds. The homogenate was centrifuged at 40,000 g for 30 minutes at 4° C. Supernatant was discarded and the resulting pellet was washed in membrane preparation buffer. Pellet was resuspended in membrane preparation buffer and aliquots of 1.4 mL ampulles were stored at −70° C. until use.
Receptor binding assays were performed in 96-well format in deep-well plates. For each 96-well plate one ampulle of membrane homogenate was thawed and diluted in binding buffer (50 mM Tris pH=7.4, 100 mM KCl) and 200 μL was dispensed into each well. Radioligand [^3H]Ro151788 (Perkin Elmer: NET757250UC) was prepared in binding buffer and added to each well in 50 μL volume to give final concentration of 0.5 nM. Test compounds in suitable concentration(s) were added in additional 50 μL. The final assay volume was 300 μL. Incubation was carried out for 60 minutes at 4° C. For non-specific binding 10 μM unlabeled diazepam was used. After incubation samples were filtered over UniFilter® GF/B™ using Filtermate Harvester (Perkin Elmer) and washed with 5×1 mL binding buffer. The plate was dried at 40° C. for an hour and 40 μL Microscint (Perkin Elmer) scintillation cocktail was added to each well. The plate was read in Microbeta (Perkin Elmer).
The specific radioligand binding (SB) was defined as the difference between total binding (Tot) and the non-specific binding (NSB). Results are expressed as a percent inhibition of specific binding obtained in the presence of compound of interest.
For IC50 and Ki determination a minimum of six drug concentrations in triplicate were used. […] Ki values (i.e. inhibition constants) were calculated using the Cheng-Prusoff equation Ki=IC50/[1+(L/KD)], where [L] is the radioligand concentration and KD the affinity of the labelled ligand for receptor. KD was determined from the Saturation analyses.

Sequence of human recombinant GABAA α5β3γ2 receptor (P31644 32-462): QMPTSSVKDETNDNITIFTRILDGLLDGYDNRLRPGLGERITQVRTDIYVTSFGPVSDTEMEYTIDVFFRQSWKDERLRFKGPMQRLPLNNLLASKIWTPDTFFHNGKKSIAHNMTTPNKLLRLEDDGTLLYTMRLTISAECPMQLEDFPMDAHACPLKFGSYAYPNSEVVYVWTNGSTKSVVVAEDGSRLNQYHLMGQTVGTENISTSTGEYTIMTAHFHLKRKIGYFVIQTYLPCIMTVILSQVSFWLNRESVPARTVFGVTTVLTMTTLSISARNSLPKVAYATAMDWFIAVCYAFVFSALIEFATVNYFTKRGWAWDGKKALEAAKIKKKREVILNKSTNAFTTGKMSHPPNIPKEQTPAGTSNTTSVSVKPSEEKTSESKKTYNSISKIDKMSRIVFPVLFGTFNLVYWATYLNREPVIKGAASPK
Sequence of human recombinant GABAA α5β3γ2 receptor (P28472 26-473 partner): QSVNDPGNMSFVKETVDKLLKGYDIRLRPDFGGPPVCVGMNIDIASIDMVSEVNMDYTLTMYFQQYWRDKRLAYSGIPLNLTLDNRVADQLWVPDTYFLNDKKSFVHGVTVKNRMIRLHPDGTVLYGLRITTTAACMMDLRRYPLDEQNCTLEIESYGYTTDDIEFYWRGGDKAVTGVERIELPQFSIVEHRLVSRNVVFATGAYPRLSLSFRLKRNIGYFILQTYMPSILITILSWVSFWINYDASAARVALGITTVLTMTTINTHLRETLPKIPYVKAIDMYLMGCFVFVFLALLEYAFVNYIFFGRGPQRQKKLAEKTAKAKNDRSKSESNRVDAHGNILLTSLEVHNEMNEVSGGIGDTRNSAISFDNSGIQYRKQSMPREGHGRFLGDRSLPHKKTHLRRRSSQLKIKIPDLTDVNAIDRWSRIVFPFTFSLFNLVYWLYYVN
Sequence of human recombinant GABAA α5β3γ2 receptor (P18507 40-475): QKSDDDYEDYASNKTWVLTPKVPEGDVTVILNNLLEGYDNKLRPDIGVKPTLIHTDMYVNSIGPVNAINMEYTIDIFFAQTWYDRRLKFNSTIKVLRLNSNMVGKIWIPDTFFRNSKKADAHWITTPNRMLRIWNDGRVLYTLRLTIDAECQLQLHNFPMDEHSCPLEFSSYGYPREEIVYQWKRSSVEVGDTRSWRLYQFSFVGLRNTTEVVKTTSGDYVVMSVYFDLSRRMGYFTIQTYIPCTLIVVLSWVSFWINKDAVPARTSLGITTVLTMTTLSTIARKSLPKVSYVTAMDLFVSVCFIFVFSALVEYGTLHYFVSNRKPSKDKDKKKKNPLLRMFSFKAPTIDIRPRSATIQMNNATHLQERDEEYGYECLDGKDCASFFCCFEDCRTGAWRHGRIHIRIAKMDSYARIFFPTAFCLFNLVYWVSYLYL

**Q.** How did the pKi turn out when `CC(=O)N1Cc2ccc(OCc3c(-c4ccc(F)cc4)noc3C)nc2C1` [Example 50, 1-(2-{[3-(4-fluorophenyl)-5-methyl-1,2-oxazol-4-yl]methoxy}-5,7-dihydro-6H-pyrrolo[3,4-b]pyridin-6-yl)ethanone] was run?
**A.** 9.10

**Q.** How did the pKi turn out when `Cc1onc(-c2ccc(F)cc2)c1COc1ccc2c(n1)CCN(C(=O)N1CCOCC1)C2` [Example 82, 2-{[3-(4-fluorophenyl)-5-methyl-1,2-oxazol-4-yl]methoxy}-6-(morpholine-4-carbonyl)-5,6,7,8-tetrahydro-1,6-naphthyridine] was run?
**A.** 8.28

**Q.** With `CC(=O)N1Cc2ccc(OCc3c(-c4ccc(F)cc4)nnn3C)nc2C1` [Example 67, 1-(2-{[4-(4-fluorophenyl)-1-methyl-1H-1,2,3-triazol-5-yl]methoxy}-5,7-dihydro-6H-pyrrolo[3,4-b]pyridin-6-yl)ethanone] as the compound, how does the pKi read?
**A.** 7.70

**Q.** With `Cc1nnn(-c2ccc(Cl)cc2)c1COc1ccc2c(n1)CCN(C(=O)[C@H]1CCOC1)C2` [Example 38, 2-{[1-(4-chlorophenyl)-4-methyl-1H-1,2,3-triazol-5-yl]methoxy}-6-[(3S)-oxolane-3-carbonyl]-5,6,7,8-tetrahydro-1,6-naphthyridine] as the compound, how does the pKi read?
**A.** 7.74

**Q.** With `Cc1onc(-c2ccc(F)cc2)c1COc1ccc2c(n1)CCN(C(=O)C1CCCO1)C2` (stereo not drawn) [Example 7, 2-{[3-(4-fluorophenyl)-5-methyl-1,2-oxazol-4-yl]methoxy}-6-(oxolane-2-carbonyl)-5,6,7,8-tetrahydro-1,6-naphthyridine] as the compound, how does the pKi read?
**A.** 8.17

**Q.** `Cc1onc(-c2ccc(F)cc2)c1COc1ccc2c(n1)CCN(C(=O)C(F)(F)F)C2` [Example 12, 2,2,2-trifluoro-1-(2-{[3-(4-fluorophenyl)-5-methyl-1,2-oxazol-4-yl]methoxy}-5,6,7,8-tetrahydro-1,6-naphthyridin-6-yl)ethan-1-one] was tested. Which pKi did it give?
**A.** 7.85

**Q.** How did the pKi turn out when `CC(C)C(=O)N1Cc2ccc(OCc3c(-c4ccc(F)cc4)nnn3C)nc2C1` [Example 72, 1-(2-{[4-(4-fluorophenyl)-1-methyl-1H-1,2,3-triazol-5-yl]methoxy}-5H,6H,7H-pyrrolo[3,4-b]pyridin-6-yl)-2-methylpropan-1-one] was run?
**A.** 7.54

**Q.** `Cn1nnc(-c2ccc(F)cc2)c1COc1ccc2c(n1)CN(C(=O)C1CCCO1)C2` (stereo not drawn) [Example 73, 4-(4-fluorophenyl)-1-methyl-5-({[6-(oxolane-2-carbonyl)-5H,6H,7H-pyrrolo[3,4-b]pyridin-2-yl]oxy}methyl)-1H-1,2,3-triazole] was tested. Which pKi did it give?
**A.** 7.74

**Q.** With `Cc1onc(-c2ccc(F)cc2)c1COc1ccc2c(n1)CCN(C(=O)c1ccno1)C2` [Example 3, 2-{[3-(4-fluorophenyl)-5-methyl-1,2-oxazol-4-yl]methoxy}-6-(1,2-oxazole-5-carbonyl)-5,6,7,8-tetrahydro-1,6-naphthyridine] as the compound, how does the pKi read?
**A.** 8.30

**Q.** How did the pKi turn out when `Cc1nnn(-c2ccc(F)cc2)c1COc1ccc2c(n1)CCN(C(=O)C1CCCOC1)C2` (stereo not drawn) [Example 30, 2-{[1-(4-fluorophenyl)-4-methyl-1H-1,2,3-triazol-5-yl]methoxy}-6-(oxane-3-carbonyl)-5,6,7,8-tetrahydro-1,6-naphthyridine] was run?
**A.** 7.09

**Q.** With `Cc1nnn(-c2ccc(F)cc2)c1COc1ccc2c(n1)CN(C(=O)C(C)C)C2` [Example 58, 1-(2-{[1-(4-fluorophenyl)-4-methyl-1H-1,2,3-triazol-5-yl]methoxy}-5H,6H,7H-pyrrolo[3,4-b]pyridin-6-yl)-2-methylpropan-1-one] as the compound, how does the pKi read?
**A.** 7.89

**Q.** `Cc1nnn(-c2ccc(F)cc2)c1COc1ccc2c(n1)CCN(C(=O)c1ccccn1)C2` [Example 26, 2-{[1-(4-fluorophenyl)-4-methyl-1H-1,2,3-triazol-5-yl]methoxy}-6-(pyridine-2-carbonyl)-5,6,7,8-tetrahydro-1,6-naphthyridine] was tested. Which pKi did it give?
**A.** 7.10

**Q.** `Cc1nnn(-c2ccc(F)cc2)c1COc1ccc2c(n1)CCN(C(=O)c1ccno1)C2` [Example 20, 2-{[1-(4-fluorophenyl)-4-methyl-1H-1,2,3-triazol-5-yl]methoxy}-6-(1,2-oxazole-5-carbonyl)-5,6,7,8-tetrahydro-1,6-naphthyridine] was tested. Which pKi did it give?
**A.** 7.62

**Q.** With `Cc1nnn(-c2ccc(F)cc2)c1COc1ccc2c(n1)CCN(C(=O)N(C)C)C2` [Example 76, 2-{[1-(4-fluorophenyl)-4-methyl-1H-1,2,3-triazol-5-yl]methoxy}-N,N-dimethyl-5,6,7,8-tetrahydro-1,6-naphthyridine-6-carboxamide] as the compound, how does the pKi read?
**A.** 7.52

**Q.** `Cc1nnn(-c2ccc(F)cc2)c1COc1ccc2c(n1)CN(C(=O)C(F)F)C2` [Example 53, 2,2-difluoro-1-(2-{[1-(4-fluorophenyl)-4-methyl-1H-1,2,3-triazol-5-yl]methoxy}-5,7-dihydro-6H-pyrrolo[3,4-b]pyridin-6-yl)ethanone] was tested. Which pKi did it give?
**A.** 7.96

**Q.** `Cc1cc(C(=O)N2CCc3nc(OCc4c(-c5ccc(F)cc5)noc4C)ccc3C2)no1` [Example 10, 2-{[3-(4-fluorophenyl)-5-methyl-1,2-oxazol-4-yl]methoxy}-6-(5-methyl-1,2-oxazole-3-carbonyl)-5,6,7,8-tetrahydro-1,6-naphthyridine] was tested. Which pKi did it give?
**A.** 7.68

**Q.** `Cc1nnn(-c2ccc(F)cc2)c1COc1ccc2c(n1)CCN(C(=O)C1CC(=O)N(C)C1)C2` (stereo not drawn) [Example 21, 4-(2-{[1-(4-fluorophenyl)-4-methyl-1H-1,2,3-triazol-5-yl]methoxy}-5,6,7,8-tetrahydro-1,6-naphthyridine-6-carbonyl)-1-methylpyrrolidin-2-one] was tested. Which pKi did it give?
**A.** 7.46

**Q.** With `Cc1onc(-c2ccc(F)cc2)c1COc1ccc2c(n1)CCN(C(=O)N(C)C)C2` [Example 83, 2-{[3-(4-fluorophenyl)-5-methyl-1,2-oxazol-4-yl]methoxy}-N,N-dimethyl-5,6,7,8-tetrahydro-1,6-naphthyridine-6-carboxamide] as the compound, how does the pKi read?
**A.** 8.42

**Q.** With `CCC(=O)N1Cc2ccc(OCc3c(-c4ccc(F)cc4)nnn3C)nc2C1` [Example 69, 1-(2-{[4-(4-fluorophenyl)-1-methyl-1H-1,2,3-triazol-5-yl]methoxy}-5,7-dihydro-6H-pyrrolo[3,4-b]pyridin-6-yl)propan-1-one] as the compound, how does the pKi read?
**A.** 7.60

**Q.** How did the pKi turn out when `CC(=O)N1CCc2ccc(OCc3c(C)nnn3-c3ccc(F)cc3)nc2C1` [Example 34, 1-(2-{[1-(4-fluorophenyl)-4-methyl-1H-1,2,3-triazol-5-yl]methoxy}-5,6,7,8-tetrahydro-1,7-naphthyridin-7-yl)ethan-1-one] was run?
**A.** 6.95

**Q.** How did the pKi turn out when `Cc1nnn(-c2ccc(F)cc2)c1COc1ccc2c(n1)CN(C(=O)c1cccnc1)C2` [Example 65, 3-(2-{[1-(4-fluorophenyl)-4-methyl-1H-1,2,3-triazol-5-yl]methoxy}-5H,6H,7H-pyrrolo[3,4-b]pyridine-6-carbonyl)pyridine] was run?
**A.** 7.55

**Q.** With `Cn1nnc(-c2ccc(F)cc2)c1COc1ccc2c(n1)CN(C(=O)C1CCOC1)C2` (stereo not drawn) [Example 71, 4-(4-fluorophenyl)-1-methyl-5-({[6-(oxolane-3-carbonyl)-5H,6H,7H-pyrrolo[3,4-b]pyridin-2-yl]oxy}methyl)-1H-1,2,3-triazole] as the compound, how does the pKi read?
**A.** 7.25

**Q.** With `Cc1nnn(-c2ccc(F)cc2)c1COc1ccc2c(n1)CCN(C(=O)N1CCOCC1)C2` [Example 80, 2-{[1-(4-fluorophenyl)-4-methyl-1H-1,2,3-triazol-5-yl]methoxy}-6-(morpholine-4-carbonyl)-5,6,7,8-tetrahydro-1,6-naphthyridine] as the compound, how does the pKi read?
**A.** 7.42

**Q.** With `Cc1onc(-c2ccc(F)cc2)c1COc1ccc2c(n1)CCN(C(=O)C1CCC1)C2` [Example 4, 6-cyclobutanecarbonyl-2-{[3-(4-fluorophenyl)-5-methyl-1,2-oxazol-4-yl]methoxy}-5,6,7,8-tetrahydro-1,6-naphthyridine] as the compound, how does the pKi read?
**A.** 7.80
